Legend:
[1] = system: Staphylococcus aureus 209P; assay: Antibacterial MIC, serial agar dilution; type: cell-based; details: aerobic, nutrient agar
[2] = system: Staphylococcus aureus Smith; assay: Antibacterial MIC, serial agar dilution; type: cell-based; details: aerobic, nutrient agar
[3] = system: Staphylococcus aureus A20234; assay: Antibacterial MIC, serial agar dilution; type: cell-based; details: aerobic, nutrient agar, kanamycin-resistant
[4] = system: Staphylococcus aureus BX1633; assay: Antibacterial MIC, serial agar dilution; type: cell-based; details: aerobic, nutrient agar, ampicillin-resistant
[5] = system: Staphylococcus aureus A15097; assay: Antibacterial MIC, serial agar dilution; type: cell-based; details: aerobic, nutrient agar, methicillin-resistant
[6] = system: Staphylococcus epidermidis A22152; assay: Antibacterial MIC, serial agar dilution; type: cell-based; details: aerobic, nutrient agar, kanamycin-resistant
[7] = system: Enterococcus faecalis A9612; assay: Antibacterial MIC, serial agar dilution; type: cell-based; details: aerobic, nutrient agar
Micrococcus luteus 1001 = assay: Antibacterial MIC, serial agar dilution; type: cell-based; details: aerobic, nutrient agar
Escherichia coli NIHJ = assay: Antibacterial MIC, serial agar dilution; type: cell-based; details: aerobic, nutrient agar
Escherichia coli Juhl = assay: Antibacterial MIC, serial agar dilution; type: cell-based; details: aerobic, nutrient agar
Escherichia coli A20665 = assay: Antibacterial MIC, serial agar dilution; type: cell-based; details: aerobic, nutrient agar, kanamycin-resistant
Escherichia coli A9624 = assay: Antibacterial MIC, serial agar dilution; type: cell-based; details: aerobic, nutrient agar, kanamycin-resistant
[8] = system: Escherichia coli A20341-1; assay: Antibacterial MIC, serial agar dilution; type: cell-based; details: A203411, aerobic, nutrient agar, ampicillin-resistant
[9] = system: Enterobacter cloacae A9659; assay: Antibacterial MIC, serial agar dilution; type: cell-based; details: aerobic, nutrient agar
[10] = system: Klebsiella pneumoniae D11; assay: Antibacterial MIC, serial agar dilution; type: cell-based; details: aerobic, nutrient agar
[11] = system: Klebsiella pneumoniae A20680; assay: Antibacterial MIC, serial agar dilution; type: cell-based; details: aerobic, nutrient agar, kanamycin-resistant
[12] = system: Pseudomonas aeruginosa A9930; assay: Antibacterial MIC, serial agar dilution; type: cell-based; details: aerobic, nutrient agar
[13] = system: Serratia marcescens A20222; assay: Antibacterial MIC, serial agar dilution; type: cell-based; details: aerobic, nutrient agar
[14] = system: Clostridium perfringens A9635; assay: microbe, parasite or virus in culture; type: cell-based
[15] = system: Propionibacterium acnes A21933; assay: Antibacterial MIC, serial agar dilution; type: cell-based; details: Cutibacterium acnes, anaerobic, GAM agar
[16] = system: Peptostreptococcus anaerobius A21905; assay: Antibacterial MIC, serial agar dilution; type: cell-based
[17] = system: Bacteroides fragilis A22534; assay: Antibacterial MIC, serial agar dilution; type: cell-based
Canidia albicans IAM4888 = assay: Antifungal MIC, Sabouraud dextrose agar; type: cell-based
Canidia albicans A9540 = assay: Antifungal MIC, Sabouraud dextrose agar; type: cell-based
[18] = system: Cryptococcus neoformans D49; assay: Antifungal MIC, Sabouraud dextrose agar; type: cell-based
[19] = system: Cryptococcus neoformans IAM4514; assay: Antifungal MIC, Sabouraud dextrose agar; type: cell-based
[20] = system: Aspergillus fumigatus IAM2034; assay: Antifungal MIC, Sabouraud dextrose agar; type: cell-based
[21] = system: Aspergillus flavus FA21436; assay: Antifungal MIC, Sabouraud dextrose agar; type: cell-based
[22] = system: Fusarium moniliforme A2284; assay: Antifungal MIC, Sabouraud dextrose agar; type: cell-based; details: Fusarium verticillioides
[23] = system: Trichophyton mentagrophytes D155; assay: Antifungal MIC, Sabouraud dextrose agar; type: cell-based
[24] = system: Trichophyton mentagrophytes #4329; assay: Antifungal MIC, Sabouraud dextrose agar; type: cell-based
Mucor spinosus IF05317 = assay: Antifungal MIC, Sabouraud dextrose agar; type: cell-based
[25] = system: aerobic and anaerobic bacteria; type: cell-based
fungi = assay: In vitro antifungal activity, overall spectrum; type: cell-based; details: all organisms tested except Cryptococcus neoformans
B16-F10 = assay: In vitro cytotoxicity; type: cell-based, murine; details: Mus musculus, 72 hours, neutral red, 540 nm
Moser = assay: In vitro cytotoxicity; type: cell-based; details: Homo sapiens; 72 hours, neutral red, 540 nm
P388 leukemia = assay: Antitumor activity against P388 leukemia (ip); type: in vivo, mice; details: for Body weight change on day 4 / MST (median survival time) / T/C: QD × 3, ip
Solubility = type: physicochemical; details: organic solvents such as chloroform, methanol and ethanol

## COC1=C(C(=O)O)C(C)C23OC24c2cc(OC(C)=O)c5c(c2NC3C#C/C=C\C#CC14)C(=O)c1c(OC(C)=O)ccc(OC(C)=O)c1C5=O (centres unmarked) [BU-3420T acetate]
[1]
  MIC: 0.0063 ng/mL
[2]
  MIC: 0.0063 ng/mL
[3]
  MIC: 0.0063 ng/mL
[4]
  MIC: 0.0063 ng/mL
[5]
  MIC: 0.0063 ng/mL
[6]
  MIC: 0.013 ng/mL
[7]
  MIC: 0.1 ng/mL
Micrococcus luteus 1001
  MIC: 0.2 ng/mL
Escherichia coli NIHJ
  MIC: 6.3 ng/mL
Escherichia coli Juhl
  MIC: 6.3 ng/mL
Escherichia coli A20665
  MIC: 13 ng/mL
Escherichia coli A9624
  MIC: 6.3 ng/mL
[8]
  MIC: 25 ng/mL
[9]
  MIC: 6.3 ng/mL
[10]
  MIC: 0.8 ng/mL
[11]
  MIC: 13 ng/mL
[12]
  MIC: 6.3 ng/mL
[13]
  MIC: 6.3 ng/mL
[14]
  MIC: 13 ng/mL
[15]
  MIC: 13 ng/mL
[16]
  MIC: 25 ng/mL
[17]
  MIC: 50 ng/mL
Canidia albicans IAM4888
  MIC: 400 ng/mL
Canidia albicans A9540
  MIC: 200 ng/mL
[18]
  MIC: 800 ng/mL
[19]
  MIC: 800 ng/mL
[20]
  MIC: < 50 ng/mL
[21]
  MIC: 400 ng/mL
[22]
  MIC: < 50 ng/mL
[23]
  MIC: 400 ng/mL
[24]
  MIC: 800 ng/mL
Mucor spinosus IF05317
  MIC: 200 ng/mL
[25]; Gram-negative organisms, versus Gram-positive
  activity against Gram-negative organisms: a little less susceptible
[25]; Gram-positive aerobic bacteria
  activity against Gram-positive aerobic bacteria: intensely potent activity
[25]; anaerobic bacteria
  activity against anaerobic Gram-positive and negative bacteria versus clindamycin: much more active than clindamycin
[25]; kanamycin- and clindamycin-resistant bacteria
  activity against certain kanamycin- and clindamycin-resistant bacteria: susceptible to both compounds
fungi
  antifungal activity versus amphotericin B: significantly more potent than amphotericin B
B16-F10
  IC50: 0.7 ng/mL
Moser
  IC50: 0.003 ng/mL
P388 leukemia; 0.5 mg/kg/day
  Body weight change on day 4: -0.5 g
  MST (median survival time): 13.5 days
  T/C: 135%
P388 leukemia; 1.0 mg/kg/day
  Body weight change on day 4: -0.8 g
  MST (median survival time): 11.0 days
  T/C: 110%
P388 leukemia; P388, ip, QD × 3
  maximum T/C value: 135%
Solubility
  solubility in organic solvents compared with BU-3420T: much improved solubility
